Assay results as given in patent US20200113923A1, “DOT1L INHIBITORS FOR USE IN THE TREATMENT OF LEUKEMIA” (Epizyme, Inc., priority 2012, published 2020).

Assays:
Type in all cases: cell-based, Human
FLT3 = assay: Quantitative real-time PCR, FLT3 expression after DOT1L inhibitor treatment; settings: up to 10 μM for 6 days, qPCR
Procedure: (§1) Exponentially growing EOL-1 cells were plated in a 12 well plate at 2×10^5 cells/mL. […] On day 4, cells were maintained in log phase culture by reseeding at 5×10^5 cells/mL and compound was replenished. At day 6 cells were washed twice with PBS and pelleted by centrifugation at 200×g. Cell pellets were lysed in 300 μL RLT buffer (Qiagen) and total RNA was isolated using the RNeasy total RNA isolation kit (Qiagen 74106). Total RNA (1 μg) was reverse transcribed using a high capacity cDNA reverse transcription kit (Applied Biosystems 4368813). RNA isolation and cDNA synthesis were carried out according to the manufacturer's protocol. Predesigned labeled primer and probe sets for HOXA9 (Hs00365956), MEIS1 (Hs00180020) and FLT3 (Hs00975659) were purchased from Applied Biosystems. Quantitative real-time PCR (qPCR) reactions contained 50 ng cDNA, 1× labeled primer and probe set, and 1× Taqman universal PCR master mix (Applied Biosystems 4304437). Samples were run on a 7900 HT Fast Real Time PCR machine (Applied Biosystems 4351405) with cycling conditions of 2 min 50° C., 10 min 95° C., 40 cycles at 15 sec 95° C. and 1 min 60° C. […] Percent of DMSO control was calculated with the equation (2^−ΔΔCT)*100 where the ΔΔCT is the difference between normalized target gene and DMSO control (ΔCT sample−ΔCT control=ΔΔCT). […]

HOXA9 = assay: Quantitative real-time PCR, HOXA9 expression after DOT1L inhibitor treatment; settings: up to 10 μM for 6 days, qPCR
Procedure: as §1

H3K79me2 = H3K79me2 immunoblot in EOL-1 cells
Procedure: Nuclei were collected by centrifugation at […] for 5 minutes at 4° C. and washed once in Tris/EDTA buffer (pH 7.4). Supernatant was removed and histones extracted for one hour with 60 μl 0.4 N cold sulfuric acid. Extracts were clarified by centrifugation at 10,000 g for 10 minutes at 4° C. and transferred to a fresh microcentrifuge tube containing 600 μl ice cold acetone. Histones were precipitated at −20° C. for 2 hours, pelleted by centrifugation at 10,000 g for 10 minutes and resuspended in 60 μl distilled water (DI water). Total protein of the acid extracts was assessed using a bicinchoninic acid (BCA) protein quantification assay with a bovine serum albumin (BSA) standard (Pierce Biotechnology).
For immunoblot analysis of the H3K79me2 inhibition by DOT1L inhibitor, exponentially growing EOL-1 cells were seeded at 2×10^5 cells/mL and incubated in the presence of increasing concentrations of DOT1L inhibitor for 4 days. […] Signal intensities specific for each methyl-specific antibody was quantified using Odyssey software and normalized to that of the appropriate total histone control signal on the same filter by dividing the methyl-specific antibody signal intensity by the total histone control signal intensity.
Inhibition of methylation of H3K79 was assessed after 4 days of treatment of DOT1L compounds in exponentially growing EOL-1 cells. […]

EOL-1 cells = assay: EOL-1 cell growth and viability assay (Guava Viacount, 11 days)
Procedure: Human leukemia cell line EOL-1 (Catalog # ACC-386) was purchased from DSMZ and were grown in Roswell Park Memorial Institute medium (RPMI) with 10% Fetal Bovine Serum (FBS). Cells were kept in log growth as outlined in the technical data sheet provided by the vendor.
Exponentially growing EOL-1 cells were plated in 96-well plates at a density of 3×10^4 viable cells/well. Each treatment was seeded in triplicate with a final well volume of 150 μLs. Cells were incubated with increasing concentrations of DOT1L inhibitor up to 50 μM. Viable cell number was determined every 3-4 days for 11 days using the Guava Viacount assay (Millipore #4000-0040) and analyzed on a Guava EasyCyte Plus instrument according to the manufacturer's protocol. On the days of cell counts, growth media and inhibitor were replenished and cells maintained in log phase culture by reseeding at a density of 5×10^4 viable cells/well. Total cell number was expressed as split-adjusted viable cells per well. For each cell inhibitor IC50 values were determined from concentration-dependence curves at day 11. […]
The effect of DOT1L inhibitors on leukemia cell growth and viability was investigated. […] The number of viable cells was determined every 3-4 days for 11 days. […] Total cell number was expressed as split-adjusted viable cells per well. […]

DOT1L = assay: Quantitative real-time PCR, DOT1L expression after DOT1L inhibitor treatment; settings: up to 10 μM for 6 days, qPCR
Procedure: (§2) Exponentially growing EOL-1 cells were plated in a 12 well plate at 2×10^5 cells/mL. […] On day 4, cells were maintained in log phase culture by reseeding at 5×10^5 cells/mL and compound was replenished. At day 6 cells were washed twice with PBS and pelleted by centrifugation at 200×g. Cell pellets were lysed in 300 μL RLT buffer (Qiagen) and total RNA was isolated using the RNeasy total RNA isolation kit (Qiagen 74106). Total RNA (1 μg) was reverse transcribed using a high capacity cDNA reverse transcription kit (Applied Biosystems 4368813). RNA isolation and cDNA synthesis were carried out according to the manufacturer's protocol. Predesigned labeled primer and probe sets for HOXA9 (Hs00365956), MEIS1 (Hs00180020) and FLT3 (Hs00975659) were purchased from Applied Biosystems. Quantitative real-time PCR (qPCR) reactions contained 50 ng cDNA, 1× labeled primer and probe set, and 1× Taqman universal PCR master mix (Applied Biosystems 4304437). Samples were run on a 7900 HT Fast Real Time PCR machine (Applied Biosystems 4351405) with cycling conditions of 2 min 50° C., 10 min 95° C., 40 cycles at 15 sec 95° C. and 1 min 60° C. […] Percent of DMSO control was calculated with the equation (2^−ΔΔCT)*100 where the ΔΔCT is the difference between normalized target gene and DMSO control (ΔCT sample−ΔCT control=ΔΔCT).

MEIS1 = assay: Quantitative real-time PCR, MEIS1 expression after DOT1L inhibitor treatment; settings: up to 10 μM for 6 days, qPCR
Procedure: as §2

IC50 (H3K79me2; Homo sapiens, EOL1, 96 h, 4 days of treatment, read-out: IC50, inhibition of methylation of H3K79 (H3K79me2)) [nM] | SMILES | FLT3 expression (FLT3) | HOXA9 expression (HOXA9) | inhibition of methyltransferase activity of DOT1L (H3K79me2 western blot) (H3K79me2; 4 days, 0.009 to 10 μM) | cell growth of EOL-1 cells (EOL-1 cells; 0.003 μM-50 μM, 11 days, MLL PTD cell line) | IC50 (EOL-1 cells; Homo sapiens, EOL1, 264 h, concentration-dependence curves at day 11) [nM] | DOT1L gene expression (DOT1L) | MEIS1 expression (MEIS1)
27 | CC(C)N(C[C@H]1O[C@@H](n2cnc3c(N)ncnc32)[C@H](O)[C@@H]1O)[C@H]1C[C@@H](CCc2nc3cc(C(C)(C)C)ccc3[nH]2)C1 [Compound A2, (2R,3R,4S,5R)-2-(6-amino-9H-purin-9-yl)-5-((((1r,3S)-3-(2-(5-(tert-butyl)-1H-benzo[d]imidazol-2-yl)ethyl)cyclobu-tyl)(isopropyl)a-mino)methyl)tet-rahydrofuran-3,4-diol] | reduced in a dose-dependent manner | reduced in a dose-dependent manner | dose-dependent inhibition | significantly inhibited | 2 | – | –
– | CC(C)N(CCCNC(=O)Nc1ccc(C(C)(C)C)cc1)CC1O[C@@H](n2ccc3c(N)ncnc32)[C@H](O)[C@@H]1O (stereo partly shown) [Compound T] | reduced in a dosage-dependent manner | reduced in a dosage-dependent manner | – | – | – | not reduced | reduced in a dosage-dependent manner
